ChEMBL document CHEMBL4610060, “Orally bioavailable amine-linked macrocyclic inhibitors of factor XIa” (Bioorg Med Chem Lett, 2020)

How the values were obtained:
[1] = Oral bioavailability in Sprague-Dawley rat at 1.04 mg/kg measured upto 24 hrs by LC-MS/MS analysis; format: ADME, organism-based; settings: in vivo
[2] = Volume of distribution at steady state in Sprague-Dawley rat at 0.52 mg/kg, iv or 1.04 mg/kg, po measured upto 24 hrs by LC-MS/MS analysis; format: ADME, organism-based; settings: in vivo, read-out: Vdss
[3] = Permeability across basolateral to apical side in human Caco2 cells; format: ADME, cell-based; settings: Caco-2, read-out: permeability
[4] = Clearance in Sprague-Dawley rat at 0.52 mg/kg, iv or 1.04 mg/kg, po measured upto 24 hrs by LC-MS/MS analysis; format: ADME, organism-based; settings: in vivo
[5] = Half life in Sprague-Dawley rat at 0.52 mg/kg, iv or 1.04 mg/kg, po measured upto 24 hrs by LC-MS/MS analysis; format: ADME, organism-based; settings: in vivo
[6] = Metabolic stability in human liver microsomes assessed as half life; format: ADME, Microsome
[7] = Metabolic stability in rat liver microsomes assessed as half life; format: ADME, Microsome
Plasma = assay: Anticoagulant activity in human plasma assessed as EC1.5 of activated partial thromboplastin time by coagulometric analysis; format: functional
Coagulation factor XI = Coagulation factor XI (Homo sapiens, UniProt P03951); assay: Inhibition of recombinant human activated coagulation factor XI using pyro-Glu-Pro-Arg-pNA as substrate by spectrophotometry
Chain of Coagulation factor XI (P03951 19-387 limits assumed): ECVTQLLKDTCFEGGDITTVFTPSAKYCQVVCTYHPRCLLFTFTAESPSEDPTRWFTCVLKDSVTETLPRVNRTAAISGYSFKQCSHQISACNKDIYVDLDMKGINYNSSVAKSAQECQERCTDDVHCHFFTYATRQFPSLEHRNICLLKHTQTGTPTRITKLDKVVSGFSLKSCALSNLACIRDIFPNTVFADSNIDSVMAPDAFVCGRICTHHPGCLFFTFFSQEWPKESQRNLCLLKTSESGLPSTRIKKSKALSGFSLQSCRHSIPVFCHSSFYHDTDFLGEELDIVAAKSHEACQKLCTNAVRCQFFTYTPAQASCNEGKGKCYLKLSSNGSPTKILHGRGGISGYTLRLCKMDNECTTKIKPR
Chain of Coagulation factor XI (P03951 388-625 limits assumed): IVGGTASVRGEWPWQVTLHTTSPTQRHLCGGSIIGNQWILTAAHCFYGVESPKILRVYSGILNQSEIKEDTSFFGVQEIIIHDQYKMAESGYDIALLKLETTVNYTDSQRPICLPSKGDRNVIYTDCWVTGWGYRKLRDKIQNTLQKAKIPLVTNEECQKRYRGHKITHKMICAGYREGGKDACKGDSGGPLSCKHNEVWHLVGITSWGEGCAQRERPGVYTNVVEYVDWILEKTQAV

[8] = Permeability across apical to basolateral side in human Caco2 cells; format: ADME, cell-based; settings: Caco-2, read-out: permeability
[9] = AUC in Sprague-Dawley rat at 1.04 mg/kg, po measured upto 24 hrs by LC-MS/MS analysis; format: ADME, organism-based; parameters: time < 24 hr, dose 1.04 mg/kg, route oral; settings: in vivo

SMILES: COC(=O)Nc1ccc2c(c1)N[C@@H](C(=O)OC)CCCC[C@H](NC(=O)/C=C/c1cc(Cl)ccc1-n1cnnn1)c1cc-2ccn1
- bioavailability [1]: 23%
- Vd [2]: 0.53 L/kg
- Papp B→A [3]: 21.3 ×10⁻⁶ cm/s
- clearance [4]: 5.2 mL/min/kg
- half-life [5]: 1.2 h
- half-life [6]: 1.85 h
- half-life [7]: 1.45 h
- EC1.5 (Plasma): 3.4 µM
- Ki (Coagulation factor XI): 3.4 nM
- Papp A→B [8]: < 1.5 ×10⁻⁶ cm/s
- AUC at 24 h [9]: 0.889 µM·h
